Results from ChEMBL document CHEMBL3860053, “Optimization of amino acid thioesters as inhibitors of metallo-β-lactamase L1” (Bioorg Med Chem Lett, 2016).
Converted amounts (≈) assume the structure as drawn.

Key:
[1] = Inhibition of metallo-beta-lactamase L1 (unknown origin) overexpressed in Escherichia coli BL21(DE3) preincubated for 30 mins followed by addition of cefazolin as substrate by spectrophotometric method
[2] = Inhibition of metallo-beta-lactamase L1 (unknown origin) overexpressed in Escherichia coli BL21(DE3) assessed as restoration of cefazolin antibacterial activity by measuring cefazolin MIC at 16 ug/ml measured after 12 hrs by macrodilution broth method (reference value: 16 ug/ml)
[3] = system: Escherichia coli; experiment: Potentiation of cefazolin-induced antibacterial activity against Escherichia coli BL21(DE3) assessed as cefazolin MIC at 16 ug/ml measured after 12 hrs by macrodilution broth method (reference value: 4 ug/ml); type: functional

Row | SMILES | IC50 [1] [nM] | MIC [2] [µg/mL] | MIC [3] [µg/mL]
1 | O=C(O)CSC(=O)[C@H](Cc1ccccc1)NC(=O)Cc1ccc(-c2ccccc2)cc1 | 140 | 2 (≈ 4.61 µM) | 4
2 | CCCCCC(=O)N[C@@H](Cc1ccccc1)C(=O)SCC(=O)O | 330 | 2 (≈ 5.93 µM) | 4
3 | CSCC[C@H](NC(=O)Cc1ccccc1)C(=O)SCC(=O)O | 90 | 4 (≈ 11.7 µM) | 4
4 | O=C(O)CSC(=O)[C@H](Cc1c[nH]c2ccccc12)NC(=O)Cc1ccc(-c2ccccc2)cc1 | 80 | 4 (≈ 8.46 µM) | 4
5 | O=C(O)CSC(=O)[C@H](Cc1c[nH]c2ccccc12)NC(=O)Cc1ccccc1 | 210 | 4 (≈ 10.1 µM) | 4
6 | CSCC[C@H](NC(=O)Cc1ccc(-c2ccccc2)cc1)C(=O)SCC(=O)O | 20 | 4 (≈ 9.58 µM) | 4
7 | O=C(O)CSC(=O)[C@H](Cc1ccccc1)NC(=O)Cc1ccccc1 | 250 | 2 (≈ 5.6 µM) | 4
8 | O=C(O)CSC(=O)c1ccc(NC(=O)OCc2ccccc2)cc1 |  | 16 (≈ 46.3 µM) | 4
9 | CCCCCC(=O)N[C@@H](Cc1c[nH]c2ccccc12)C(=O)SCC(=O)O | 600 | 4 (≈ 10.6 µM) | 4
10 | CSCC[C@H](NC(=O)c1ccccc1)C(=O)SCC(=O)O | 80 | 4 (≈ 12.2 µM) | 4
